Data on seven compounds can be found in paper PMC5580309, “Molecular-scale features that govern the effects of O-glycosylation on a carbohydrate-binding module” (Chemical Science, 2015).

Bridge positions count the residues as written; N and C are the ends. Peptide text beside a SMILES is read from it. * marks the point of attachment. X1 = OC[C@H]1O[C@H](OC[C@H]2O[C@H](*)[C@@H](O)[C@@H](O)[C@@H]2O)[C@@H](O)[C@@H](O)[C@@H]1O; X4 = OC[C@H]1O[C@H](OC[C@H]2O[C@H](*)[C@@H](O)[C@@H](O)[C@@H]2O)[C@H](O)[C@@H](O)[C@@H]1O; αGalNAc = CC(=O)N[C@@H]1[C@@H](O)[C@@H](O)[C@@H](CO)O[C@@H]1*; βGlc = OC[C@H]1O[C@@H](*)[C@H](O)[C@@H](O)[C@@H]1O; βGal = OC[C@H]1O[C@@H](*)[C@H](O)[C@@H](O)[C@H]1O; X6 = C[C@@H]1O[C@@H](*)[C@@H](O)[C@H](O)[C@@H]1O; X9 = OC[C@H]1O[C@H](*)[C@H](O)[C@@H](O)[C@H]1O

What is called half-life is the time in which the quantity being followed falls by half. Read a high half-life as slow decline.

The target of this data set is T1, thermolysin (Bacillus thermoproteolyticus, UniProt P00800).
T1 sequence (P00800 233-548): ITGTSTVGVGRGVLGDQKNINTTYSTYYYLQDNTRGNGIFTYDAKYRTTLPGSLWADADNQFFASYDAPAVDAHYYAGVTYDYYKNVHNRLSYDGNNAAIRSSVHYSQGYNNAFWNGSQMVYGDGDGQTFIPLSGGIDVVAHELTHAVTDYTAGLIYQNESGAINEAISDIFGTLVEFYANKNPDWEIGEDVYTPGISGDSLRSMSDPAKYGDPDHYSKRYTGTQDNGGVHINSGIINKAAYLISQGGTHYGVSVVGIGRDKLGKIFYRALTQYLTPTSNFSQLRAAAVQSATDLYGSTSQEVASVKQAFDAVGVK
The data set can be described thus: Proteolytic stability: half-life to thermolysin degradation. The format is in vitro ADME. The note with it: for Change in Half-Life to Thermolysin Degradation: glyco-variant minus its corresponding unglycosylated CBM (e.g. 2-1), *** not used in the correlation plot; for half-life: thermolysin (isolated protease), thermolysin degradation, mean of three trials ± SD, procedures as described previously (ESI ref 18). Here is the method:
All error bars reported are standard deviations of data achieved from three separate trials.
cellulose that were determined in accordance with our procedures as described previously 18.
The results are presented as mean of three trials ± SD. *Denotes an averaged value of four trials

Consider `CC[C@H](C)[C@@H]1NC(=O)CNC(=O)CNC(=O)[C@@H](NC(=O)[C@H](CCC(N)=O)NC(=O)CNC(=O)[C@H](Cc2ccc(O)cc2)NC(=O)[C@H](Cc2c[nH]cn2)NC(=O)[C@H](CO[C@@H]2O[C@H](CO)[C@@H](O)[C@H](O)[C@H]2O)NC(=O)[C@H](CCC(N)=O)NC(=O)[C@@H](N)[C@@H](C)O)CSSC[C@@H]2NC(=O)[C@H]([C@@H](C)O)NC(=O)[C@H]([C@@H](C)O)NC(=O)CNC(=O)[C@H](CO)NC(=O)[C@H](C)NC(=O)[C@H](CSSC[C@@H](C(=O)N[C@@H](CC(C)C)C(=O)O)NC(=O)[C@H](CCC(N)=O)NC(=O)[C@H](CO)NC(=O)[C@H](Cc3ccc(O)cc3)NC(=O)[C@H](Cc3ccc(O)cc3)NC(=O)[C@@H]3CCCN3C(=O)[C@H](CC(N)=O)NC(=O)[C@H](CC(C)C)NC(=O)[C@H](C(C)C)NC(=O)[C@H](CCC(N)=O)NC2=O)NC(=O)[C@H](C(C)C)NC(=O)[C@H]([C@@H](C)O)NC(=O)[C@@H]2CCCN2C(=O)CNC(=O)[C@H](CO)NC(=O)[C@H](Cc2ccc(O)cc2)NC(=O)CNC1=O` [CBM variant 24] (H-TQS(βGlc)HYGQCGGIGYSGPTVCASGTTCQVLNPYYSQCL-OH; disulfide 8-25, 19-35), for which the “Change in Half-Life to Thermolysin Degradation” value (shortened to “Change in Half-Life”) came to 3 min and the half-life was 16.8 ± 1.8 min.

With `CC[C@H](C)[C@@H]1NC(=O)CNC(=O)CNC(=O)[C@@H](NC(=O)[C@H](CCC(N)=O)NC(=O)CNC(=O)[C@H](Cc2ccc(O)cc2)NC(=O)[C@H](Cc2c[nH]cn2)NC(=O)[C@H](CO[C@H]2O[C@H](CO)[C@H](O)[C@H](O)[C@H]2NC(C)=O)NC(=O)[C@H](CCC(N)=O)NC(=O)[C@@H](N)[C@@H](C)O)CSSC[C@@H]2NC(=O)[C@H]([C@@H](C)O)NC(=O)[C@H]([C@@H](C)O)NC(=O)CNC(=O)[C@H](CO)NC(=O)[C@H](C)NC(=O)[C@H](CSSC[C@@H](C(=O)N[C@@H](CC(C)C)C(=O)O)NC(=O)[C@H](CCC(N)=O)NC(=O)[C@H](CO)NC(=O)[C@H](Cc3ccc(O)cc3)NC(=O)[C@H](Cc3ccc(O)cc3)NC(=O)[C@@H]3CCCN3C(=O)[C@H](CC(N)=O)NC(=O)[C@H](CC(C)C)NC(=O)[C@H](C(C)C)NC(=O)[C@H](CCC(N)=O)NC2=O)NC(=O)[C@H](C(C)C)NC(=O)[C@H]([C@@H](C)O)NC(=O)[C@@H]2CCCN2C(=O)CNC(=O)[C@H](CO)NC(=O)[C@H](Cc2ccc(O)cc2)NC(=O)CNC1=O` [CBM variant 25] (H-TQS(αGalNAc)HYGQCGGIGYSGPTVCASGTTCQVLNPYYSQCL-OH; disulfide 8-25, 19-35), the “Change in Half-Life” value amounted to 9 min and the half-life was 22.8 ± 3 min.

On to `CC[C@H](C)[C@@H]1NC(=O)CNC(=O)CNC(=O)[C@@H](NC(=O)[C@H](CCC(N)=O)NC(=O)CNC(=O)[C@H](Cc2ccc(O)cc2)NC(=O)[C@H](Cc2c[nH]cn2)NC(=O)[C@H](CO[C@H]2O[C@H](CO)[C@H](O)[C@H](O)[C@H]2O)NC(=O)[C@H](CCC(N)=O)NC(=O)[C@@H](N)[C@@H](C)O)CSSC[C@@H]2NC(=O)[C@H]([C@@H](C)O)NC(=O)[C@H]([C@@H](C)O)NC(=O)CNC(=O)[C@H](CO)NC(=O)[C@H](C)NC(=O)[C@H](CSSC[C@@H](C(=O)N[C@@H](CC(C)C)C(=O)O)NC(=O)[C@H](CCC(N)=O)NC(=O)[C@H](CO)NC(=O)[C@H](Cc3ccc(O)cc3)NC(=O)[C@H](Cc3ccc(O)cc3)NC(=O)[C@@H]3CCCN3C(=O)[C@H](CC(N)=O)NC(=O)[C@H](CC(C)C)NC(=O)[C@H](C(C)C)NC(=O)[C@H](CCC(N)=O)NC2=O)NC(=O)[C@H](C(C)C)NC(=O)[C@H]([C@@H](C)O)NC(=O)[C@@H]2CCCN2C(=O)CNC(=O)[C@H](CO)NC(=O)[C@H](Cc2ccc(O)cc2)NC(=O)CNC1=O` [CBM variant 26] (H-TQS(X9)HYGQCGGIGYSGPTVCASGTTCQVLNPYYSQCL-OH; disulfide 8-25, 19-35), for which the “Change in Half-Life” value is 16.2 min and the half-life was 30 ± 3 min.

In the case of `CC[C@H](C)[C@@H]1NC(=O)CNC(=O)CNC(=O)[C@@H](NC(=O)[C@H](CCC(N)=O)NC(=O)CNC(=O)[C@H](Cc2ccc(O)cc2)NC(=O)[C@H](Cc2c[nH]cn2)NC(=O)[C@H](CO[C@@H]2O[C@H](CO)[C@H](O)[C@H](O)[C@H]2O)NC(=O)[C@H](CCC(N)=O)NC(=O)[C@@H](N)[C@@H](C)O)CSSC[C@@H]2NC(=O)[C@H]([C@@H](C)O)NC(=O)[C@H]([C@@H](C)O)NC(=O)CNC(=O)[C@H](CO)NC(=O)[C@H](C)NC(=O)[C@H](CSSC[C@@H](C(=O)N[C@@H](CC(C)C)C(=O)O)NC(=O)[C@H](CCC(N)=O)NC(=O)[C@H](CO)NC(=O)[C@H](Cc3ccc(O)cc3)NC(=O)[C@H](Cc3ccc(O)cc3)NC(=O)[C@@H]3CCCN3C(=O)[C@H](CC(N)=O)NC(=O)[C@H](CC(C)C)NC(=O)[C@H](C(C)C)NC(=O)[C@H](CCC(N)=O)NC2=O)NC(=O)[C@H](C(C)C)NC(=O)[C@H]([C@@H](C)O)NC(=O)[C@@H]2CCCN2C(=O)CNC(=O)[C@H](CO)NC(=O)[C@H](Cc2ccc(O)cc2)NC(=O)CNC1=O` [CBM variant 27] (H-TQS(βGal)HYGQCGGIGYSGPTVCASGTTCQVLNPYYSQCL-OH; disulfide 8-25, 19-35), the “Change in Half-Life” value was 3.6 min and the half-life was 17.4 ± 1.2 min.

In the case of `CC[C@H](C)[C@@H]1NC(=O)CNC(=O)CNC(=O)[C@@H](NC(=O)[C@H](CCC(N)=O)NC(=O)CNC(=O)[C@H](Cc2ccc(O)cc2)NC(=O)[C@H](Cc2c[nH]cn2)NC(=O)[C@H](CO[C@@H]2O[C@@H](C)[C@@H](O)[C@@H](O)[C@@H]2O)NC(=O)[C@H](CCC(N)=O)NC(=O)[C@@H](N)[C@@H](C)O)CSSC[C@@H]2NC(=O)[C@H]([C@@H](C)O)NC(=O)[C@H]([C@@H](C)O)NC(=O)CNC(=O)[C@H](CO)NC(=O)[C@H](C)NC(=O)[C@H](CSSC[C@@H](C(=O)N[C@@H](CC(C)C)C(=O)O)NC(=O)[C@H](CCC(N)=O)NC(=O)[C@H](CO)NC(=O)[C@H](Cc3ccc(O)cc3)NC(=O)[C@H](Cc3ccc(O)cc3)NC(=O)[C@@H]3CCCN3C(=O)[C@H](CC(N)=O)NC(=O)[C@H](CC(C)C)NC(=O)[C@H](C(C)C)NC(=O)[C@H](CCC(N)=O)NC2=O)NC(=O)[C@H](C(C)C)NC(=O)[C@H]([C@@H](C)O)NC(=O)[C@@H]2CCCN2C(=O)CNC(=O)[C@H](CO)NC(=O)[C@H](Cc2ccc(O)cc2)NC(=O)CNC1=O` [CBM variant 28] (H-TQS(X6)HYGQCGGIGYSGPTVCASGTTCQVLNPYYSQCL-OH; disulfide 8-25, 19-35), the “Change in Half-Life” value stood at 23.4 min and the half-life was 37.2 ± 6.6 min.

On to `CC[C@H](C)[C@@H]1NC(=O)CNC(=O)CNC(=O)[C@@H](NC(=O)[C@H](CCC(N)=O)NC(=O)CNC(=O)[C@H](Cc2ccc(O)cc2)NC(=O)[C@H](Cc2c[nH]cn2)NC(=O)[C@H](CO[C@H]2O[C@H](CO[C@H]3O[C@H](CO)[C@@H](O)[C@H](O)[C@@H]3O)[C@@H](O)[C@H](O)[C@@H]2O)NC(=O)[C@H](CCC(N)=O)NC(=O)[C@@H](N)[C@@H](C)O)CSSC[C@@H]2NC(=O)[C@H]([C@@H](C)O)NC(=O)[C@H]([C@@H](C)O)NC(=O)CNC(=O)[C@H](CO)NC(=O)[C@H](C)NC(=O)[C@H](CSSC[C@@H](C(=O)N[C@@H](CC(C)C)C(=O)O)NC(=O)[C@H](CCC(N)=O)NC(=O)[C@H](CO)NC(=O)[C@H](Cc3ccc(O)cc3)NC(=O)[C@H](Cc3ccc(O)cc3)NC(=O)[C@@H]3CCCN3C(=O)[C@H](CC(N)=O)NC(=O)[C@H](CC(C)C)NC(=O)[C@H](C(C)C)NC(=O)[C@H](CCC(N)=O)NC2=O)NC(=O)[C@H](C(C)C)NC(=O)[C@H]([C@@H](C)O)NC(=O)[C@@H]2CCCN2C(=O)CNC(=O)[C@H](CO)NC(=O)[C@H](Cc2ccc(O)cc2)NC(=O)CNC1=O` [CBM variant 29] (H-TQS(X1)HYGQCGGIGYSGPTVCASGTTCQVLNPYYSQCL-OH; disulfide 8-25, 19-35), for which the “Change in Half-Life” value worked out at 37.8 min and the half-life was 51.6 ± 1.8 min.

Consider `CC[C@H](C)[C@@H]1NC(=O)CNC(=O)CNC(=O)[C@@H](NC(=O)[C@H](CCC(N)=O)NC(=O)CNC(=O)[C@H](Cc2ccc(O)cc2)NC(=O)[C@H](Cc2c[nH]cn2)NC(=O)[C@H](CO[C@H]2O[C@H](CO[C@H]3O[C@H](CO)[C@@H](O)[C@H](O)[C@H]3O)[C@@H](O)[C@H](O)[C@@H]2O)NC(=O)[C@H](CCC(N)=O)NC(=O)[C@@H](N)[C@@H](C)O)CSSC[C@@H]2NC(=O)[C@H]([C@@H](C)O)NC(=O)[C@H]([C@@H](C)O)NC(=O)CNC(=O)[C@H](CO)NC(=O)[C@H](C)NC(=O)[C@H](CSSC[C@@H](C(=O)N[C@@H](CC(C)C)C(=O)O)NC(=O)[C@H](CCC(N)=O)NC(=O)[C@H](CO)NC(=O)[C@H](Cc3ccc(O)cc3)NC(=O)[C@H](Cc3ccc(O)cc3)NC(=O)[C@@H]3CCCN3C(=O)[C@H](CC(N)=O)NC(=O)[C@H](CC(C)C)NC(=O)[C@H](C(C)C)NC(=O)[C@H](CCC(N)=O)NC2=O)NC(=O)[C@H](C(C)C)NC(=O)[C@H]([C@@H](C)O)NC(=O)[C@@H]2CCCN2C(=O)CNC(=O)[C@H](CO)NC(=O)[C@H](Cc2ccc(O)cc2)NC(=O)CNC1=O` [CBM variant 30] (H-TQS(X4)HYGQCGGIGYSGPTVCASGTTCQVLNPYYSQCL-OH; disulfide 8-25, 19-35), for which the “Change in Half-Life” value turned out to be 33 min and the half-life was 46.8 ± 6.6 min.
